In paper PMC10584170, “Machine learning-based phenotypic imaging to characterise the targetable biology of Plasmodium falciparum male gametocytes for the development of transmission-blocking antimalarials” (PLOS Pathogens, 2023):

Tests used:
[1] = system: P. falciparum male gametocytes; experiment: P. falciparum Dual Gamete Formation Assay (PfDGFA), male readout (exflagellation); assay type: cell-based, Plasmodium falciparum NF54; conditions: for Average inhibition male (%): average of replicates; for % inhibition male (individual replicates) R1: replicate R1; for % inhibition male (individual replicates) R3: replicate R3; for % inhibition male (individual replicates) R4: replicate R4; for Activity: hit = >50% inhibition in male or female readout in at least 3 replicates, 0 = no class assigned
Protocol: (§1) P. falciparum NF54 (originally isolated from an imported malaria case in the Netherlands in the 1980s; BEI Resources, cat. No. MRA-1000) strain asexual parasites were maintained between 0.3–5% parasitaemia by regular passage in complete culture medium (RPMI supplemented with 25 mM HEPES, 50 μg ml^−1 hypoxanthine, 4.8 g l^−1 NaHCO3, 2mM L-glutamine, 5% pooled type AB serum, 0.5% Albumax II (Gibco)) at 4% haematocrit in washed whole blood (National Blood and Transfusion Service or Centro de Transfusiones de la Comunidad de Madrid CTCM) under a 1% O2/3% CO2/96% N2 environment. Gametocytes were induced by seeding culture flasks at 2% parasitaemia/4% haematocrit and subjecting them to daily medium changes for 14 days whilst maintaining a temperature of 37°C at all times. On Day 14, the maturity of gametocytes was assessed by quantifying male gametogenesis (exflagellation). A 20 μl sample of gametocyte culture was mixed with equal volume of ookinete medium (complete culture medium supplemented with 0.1 μM xanthurenic acid) at room temperature and transferred to a haemocytometer. After 20 min at room temperature, exflagellation was accurately quantified as described in Delves et al. 2016 [17].
(§2) The Pf DGFA was performed as described in Delves et al. 2016 [17]. […] Plates were then incubated for 24 h at 37°C in a humidified box under a 1% O2/3% CO2/96% N2 gas mix. Gametogenesis was triggered by addition of 10 μl per well of ookinete medium + 0.27 μg ml^-1 Cy3-labelled anti-Pfs25 antibody. Plates were incubated on a metal block at 4°C for 4 min to ensure even cooling, then 28°C for a further 4 min. Exflagellation was recorded by capturing 10 frames over 1 s under brightfield illumination using a x4 objective with a 1.5x zoom (effectively x6) attached to an automated Nikon Ti fluorescence microscope. After recording exflagellation, plates were incubated for a further 24 h in the dark at 28°C to ensure maximal expression of Pfs25 by female gametes. The plates were then returned to the microscope and female gametes imaged at x6 using fluorescence microscopy.
(§3) Exflagellation centres and female gametes were quantified using custom image analysis pipelines developed within ICY Bioimage Analysis (https://icy.bioimageanalysis.org/).

[2] = system: P. falciparum female gametocytes; experiment: P. falciparum Dual Gamete Formation Assay (PfDGFA), female readout (Pfs25-positive female gametes); assay type: cell-based, Plasmodium falciparum NF54; conditions: for Average inhibition female (%): average of replicates; for % inhibition female (individual replicates) R1: replicate R1; for % inhibition female (individual replicates) R3: replicate R3; for % inhibition female (individual replicates) R4: replicate R4
Protocol: as §1, §2, §3

[3] = 2µM, 24h preincubation with gametocytes prior to induction of gametogenesis
[4] = 2µM, 24h preincubation, hits selected on >50% inhibition in the male readout across replicates
[5] = PfDGFA at 2µM, 24h preincubation
[6] = 2µM, 24h preincubation, hits selected on >50% inhibition in the female readout across replicates
[7] = PfDGFA at 2µM, 24h preincubation with gametocytes prior to induction of gametogenesis
[8] = 2µM, 24h preincubation, number of replicates with >50% inhibition in the male readout
[9] = 2µM, 24h preincubation, number of replicates with >50% inhibition in the female readout
[10] = 2µM, 24h preincubation with gametocytes

## Br.Oc1cccc(CCNCCCCCCNCCc2ccc(Cl)cc2)c1 [TCMDC-131285]
[1]; [3]
  Average inhibition male (%): 17.5%
  % inhibition male (individual replicates) R1: 13.8%
  % inhibition male (individual replicates) R3: 6.4%
  % inhibition male (individual replicates) R4: 28.9%
[1]; [4]
  HitlevelM: 0
[1]; [5]
  Activity: 0
[2]; [3]
  Average inhibition female (%): 14.3%
  % inhibition female (individual replicates) R1: 12.4%
  % inhibition female (individual replicates) R3: 15.9%
  % inhibition female (individual replicates) R4: 17.3%
[2]; [6]
  HitlevelF: 0

## Cl.NC1=NC(CCc2ccccc2)N(c2ccc(Cl)cc2)C(N)=N1 (centres unmarked) [TCMDC-131290]
[1]; [7]
  % inhibition male (individual replicates) R1: -21.3%
  % inhibition male (individual replicates) R3: -9.1%
  % inhibition male (individual replicates) R4: -39.8%
[1]; [5]
  Average inhibition male (%): -16.9%
[2]; [7]
  % inhibition female (individual replicates) R1: 1.0%
  % inhibition female (individual replicates) R3: -2.9%
  % inhibition female (individual replicates) R4: -19.8%
[2]; [5]
  Average inhibition female (%): -10.7%

## Br.CCCC1N=C(N)N=C(N)N1c1ccc(CC)cc1 (centres unmarked) [TCMDC-131300]
[1]; [3]
  Average inhibition male (%): -2.2%
  % inhibition male (individual replicates) R1: 7.1%
  % inhibition male (individual replicates) R3: 2.2%
  % inhibition male (individual replicates) R4: -35.1%
[1]; [4]
  HitlevelM: 0
[1]; [5]
  Activity: 0
[2]; [3]
  Average inhibition female (%): 5.7%
  % inhibition female (individual replicates) R1: 16.1%
  % inhibition female (individual replicates) R3: 10.4%
  % inhibition female (individual replicates) R4: 12.0%
[2]; [6]
  HitlevelF: 0

## CNCCCCCCOc1ccc(CC(C)NCC(O)c2cccc(C(F)(F)F)c2)cc1.Cl (centres unmarked) [TCMDC-131523]
[1]; [7]
  % inhibition male (individual replicates) R1: 2.8%
  % inhibition male (individual replicates) R3: -13.3%
  % inhibition male (individual replicates) R4: 4.2%
[1]; [5]
  Average inhibition male (%): -0.8%
[2]; [7]
  % inhibition female (individual replicates) R1: 10.7%
  % inhibition female (individual replicates) R3: -17.9%
  % inhibition female (individual replicates) R4: 1.1%
[2]; [5]
  Average inhibition female (%): -0.7%

## C[C@H](Cc1ccc(OCCNC[C@H](O)c2cccc(Cl)c2)cc1)NC[C@H](O)c1ccc(Cl)c(Cl)c1.O [TCMDC-131547]
[1]; [3]
  Average inhibition male (%): 22.6%
  % inhibition male (individual replicates) R1: 62.1%
  % inhibition male (individual replicates) R3: 23.6%
  % inhibition male (individual replicates) R4: 9.5%
[1]; [4]
  HitlevelM: 1
[1]; [5]
  Activity: 0
[2]; [3]
  Average inhibition female (%): 17.7%
  % inhibition female (individual replicates) R1: 20.3%
  % inhibition female (individual replicates) R3: 33.9%
  % inhibition female (individual replicates) R4: 3.3%
[2]; [6]
  HitlevelF: 0

## C[C@H](Cc1ccc(S(=O)(=O)c2ccc(C[C@@H](C)NC[C@H](O)c3cccc(Cl)c3)cc2)cc1)NC[C@H](O)c1cccc(Cl)c1.Cl [TCMDC-131561]
[1]; [3]
  Average inhibition male (%): 47.9%
  % inhibition male (individual replicates) R1: 47.0%
  % inhibition male (individual replicates) R3: 11.1%
  % inhibition male (individual replicates) R4: 74.2%
[1]; [8]
  HitlevelM: 2
[2]; [3]
  Average inhibition female (%): 28.9%
  % inhibition female (individual replicates) R1: 27.9%
  % inhibition female (individual replicates) R3: 9.1%
  % inhibition female (individual replicates) R4: 30.5%
[2]; [9]
  HitlevelF: 0

## CC1(C)N=C(NC(=O)c2ccc([N+](=O)[O-])cc2)N=C(N)N1OCc1ccc2ccccc2c1 [TCMDC-131580]
[1]; [7]
  % inhibition male (individual replicates) R1: 21.0%
  % inhibition male (individual replicates) R3: -18.0%
  % inhibition male (individual replicates) R4: -29.1%
[1]; [5]
  Average inhibition male (%): -7.9%
[2]; [7]
  % inhibition female (individual replicates) R1: 12.5%
  % inhibition female (individual replicates) R3: -19.7%
  % inhibition female (individual replicates) R4: 0.76%
[2]; [5]
  Average inhibition female (%): 3.4%

## CC1(C)N=C(N)N=C(N)N1OCc1cc(Cl)c(CON2C(N)=NC(N)=NC2(C)C)cc1Cl [TCMDC-131624]
[1]; [7]
  % inhibition male (individual replicates) R1: 2.1%
  % inhibition male (individual replicates) R4: -25.6%
[1]; [5]
  Average inhibition male (%): -4.5%
[2]; [7]
  % inhibition female (individual replicates) R1: 0.3%
  % inhibition female (individual replicates) R3: 11.6%
  % inhibition female (individual replicates) R4: 5.2%
[2]; [5]
  Average inhibition female (%): 2.9%

## Cc1ccc(CON2C(N)=NC(N)=NC2(C)C)c(Cl)c1.Cc1ccc(CON2C(N)=NC(N)=NC2(C)C)cc1Cl [TCMDC-131625]
[1]; [7]
  % inhibition male (individual replicates) R1: 26.3%
  % inhibition male (individual replicates) R3: -30.0%
  % inhibition male (individual replicates) R4: -18.5%
[1]; [5]
  Average inhibition male (%): -5.6%
[2]; [7]
  % inhibition female (individual replicates) R1: -4.8%
  % inhibition female (individual replicates) R3: -23.0%
  % inhibition female (individual replicates) R4: 21.6%
[2]; [5]
  Average inhibition female (%): -0.55%

## CC(=O)c1ccc(NC(=O)NNC(=O)c2ccc(CCN3CCC(c4nc(COCC(F)(F)F)c(-c5ccc(F)cc5)o4)CC3)cc2)cc1 [TCMDC-131905]
[1]; [7]
  % inhibition male (individual replicates) R1: 1.3%
  % inhibition male (individual replicates) R3: 7.6%
  % inhibition male (individual replicates) R4: 18.2%
[1]; [5]
  Average inhibition male (%): 9.5%
[2]; [7]
  % inhibition female (individual replicates) R1: 5.8%
  % inhibition female (individual replicates) R3: -31.0%
  % inhibition female (individual replicates) R4: 36.9%
[2]; [5]
  Average inhibition female (%): 3.6%

## COc1cc2ncnc(Nc3ccc(OCc4ccccc4)c(OCc4ccccc4)c3)c2cc1OC.Cl [TCMDC-131922]
[1]; [3]
  Average inhibition male (%): 5.7%
  % inhibition male (individual replicates) R1: 10.5%
  % inhibition male (individual replicates) R3: 8.7%
  % inhibition male (individual replicates) R4: 6.9%
[1]; [4]
  HitlevelM: 0
[1]; [5]
  Activity: 0
[2]; [3]
  Average inhibition female (%): 10.3%
  % inhibition female (individual replicates) R1: 5.3%
  % inhibition female (individual replicates) R3: 31.5%
  % inhibition female (individual replicates) R4: 4.3%
[2]; [6]
  HitlevelF: 0

## Nc1nc(N)c2c(ccc3c2cnn3Cc2cccnc2)n1 [TCMDC-131932]
[1]; [3]
  Average inhibition male (%): 12.5%
  % inhibition male (individual replicates) R1: 4.3%
  % inhibition male (individual replicates) R3: 31.7%
  % inhibition male (individual replicates) R4: 1.1%
[1]; [8]
  HitlevelM: 0
[2]; [3]
  Average inhibition female (%): 18.1%
  % inhibition female (individual replicates) R1: 3.3%
  % inhibition female (individual replicates) R3: 58.3%
  % inhibition female (individual replicates) R4: 1.8%
[2]; [9]
  HitlevelF: 1

## COc1ccc2nc(Nc3nc4cnccc4[nH]3)sc2c1 [TCMDC-131950]
[1]; [3]
  Average inhibition male (%): -15.4%
  % inhibition male (individual replicates) R1: -6.4%
  % inhibition male (individual replicates) R3: -26.4%
  % inhibition male (individual replicates) R4: -8.5%
[1]; [4]
  HitlevelM: 0
[1]; [5]
  Activity: 0
[2]; [3]
  Average inhibition female (%): 7.4%
  % inhibition female (individual replicates) R1: 12.1%
  % inhibition female (individual replicates) R3: -4.5%
  % inhibition female (individual replicates) R4: 3.8%
[2]; [6]
  HitlevelF: 0

## O=[N+]([O-])c1ccc(C=NO)nc1 [TCMDC-131967]
[1]; [10]
  Average inhibition male (%): 97.7%
  % inhibition male (individual replicates) R1: 97.9%
  % inhibition male (individual replicates) R3: 95.1%
  % inhibition male (individual replicates) R4: 101.6%
[2]; [10]
  Average inhibition female (%): 41.1%
  % inhibition female (individual replicates) R1: 34.5%
  % inhibition female (individual replicates) R3: 28.1%
  % inhibition female (individual replicates) R4: 43.8%

## CS(=O)(=O)c1ccc(-n2nc(C(F)(F)F)cc2-c2ccc(C=NOCC(=O)O)o2)cc1 [TCMDC-132015]
[1]; [7]
  % inhibition male (individual replicates) R1: 7.6%
  % inhibition male (individual replicates) R3: -4.4%
  % inhibition male (individual replicates) R4: -18.5%
[1]; [5]
  Average inhibition male (%): -6.3%
[2]; [7]
  % inhibition female (individual replicates) R1: 5.4%
  % inhibition female (individual replicates) R3: -21.4%
  % inhibition female (individual replicates) R4: 0.25%
[2]; [5]
  Average inhibition female (%): -6.9%

## CCc1c(CCNCCCCCCNCCc2ccc(Br)cc2)ccc(OC)c1OC.Cl [TCMDC-132045]
[1]; [7]
  % inhibition male (individual replicates) R1: -2.0%
  % inhibition male (individual replicates) R3: 7.0%
  % inhibition male (individual replicates) R4: 22.9%
[1]; [5]
  Average inhibition male (%): 10.8%
[2]; [7]
  % inhibition female (individual replicates) R1: -8.2%
  % inhibition female (individual replicates) R3: -48.0%
  % inhibition female (individual replicates) R4: -18.3%
[2]; [5]
  Average inhibition female (%): -21.6%
